Data from ChEMBL document CHEMBL3046912, “Effectiveness of 1,3-dichloropropene as an alternative to methyl bromide in rotations of tomato (Solanum lycopersicum) and cucumber (Cucumis sativus) in China” (2012).

Tests used:
Type in all cases: functional
[1] = tested on: Solanum lycopersicum; test: Increase in crop yield in Cucumis sativus (cucumber) plants exposed to 90 L/ha compound fumigation treatment assessed as marketable yield fruit yield (reference value: 65.3 ton/ha)
[2] = tested on: Capsella bursa-pastoris; test: Herbicidal activity against Capsella bursa-pastoris in cucumber plants fields exposed to 120 L/ha compound fumigation treatment assessed as hand weeding time per plot relative to untreated control
[3] = tested on: Solanum lycopersicum; test: Increase in crop yield in Cucumis sativus (cucumber) plants exposed to 90 L/ha compound fumigation treatment assessed as extra-large fruit yield (reference value: 7.2 ton/ha)
[4] = tested on: Arenaria serpyllifolia; test: Herbicidal activity against Arenaria serpyllifolia in tomato plants fields exposed to 120 L/ha compound fumigation treatment assessed as hand weeding time per plot relative to untreated control
[5] = tested on: Capsella bursa-pastoris; test: Herbicidal activity against Capsella bursa-pastoris in tomato plants fields exposed to 180 L/ha compound fumigation treatment assessed as hand weeding time per plot (reference value: 243.3 hr/ha)
[6] = tested on: Digitaria sanguinalis; test: Herbicidal activity against Digitaria sanguinalis (hairy crabgrass) in tomato plants fields exposed to 180 L/ha compound fumigation treatment assessed as hand weeding time per plot (reference value: 243.3 hr/ha)
[7] = tested on: Solanum lycopersicum; test: Increase in crop yield in Solanum lycopersicum (tomato) plants exposed to 120 L/ha compound fumigation treatment assessed as medium fruit yield (reference value: 32.3 ton/ha)
[8] = tested on: Solanum lycopersicum; test: Increase in crop yield in Solanum lycopersicum (tomato) plants exposed to 90 L/ha compound fumigation treatment assessed as medium fruit yield (reference value: 32.3 ton/ha)
[9] = tested on: Solanum lycopersicum; test: Increase in crop yield in Solanum lycopersicum (tomato) plants exposed to 180 L/ha compound fumigation treatment assessed as marketable yield fruit yield (reference value: 51.3 ton/ha)
[10] = tested on: Arenaria serpyllifolia; test: Herbicidal activity against Arenaria serpyllifolia in cucumber plants fields exposed to 90 L/ha compound fumigation treatment assessed as hand weeding time per plot (reference value: 258.3 hr/ha)
[11] = tested on: Solanum lycopersicum; test: Increase in crop yield in Cucumis sativus (cucumber) plants exposed to 180 L/ha compound fumigation treatment assessed as marketable yield fruit yield (reference value: 65.3 ton/ha)
[12] = tested on: Digitaria sanguinalis; test: Herbicidal activity against Digitaria sanguinalis (hairy crabgrass) in cucumber plants fields exposed to 90 L/ha compound fumigation treatment assessed as hand weeding time per plot (reference value: 258.3 hr/ha)
[13] = tested on: Solanum lycopersicum; test: Increase in crop yield in Solanum lycopersicum (tomato) plants exposed to 90 L/ha compound fumigation treatment assessed as marketable yield fruit yield (reference value: 51.3 ton/ha)
[14] = tested on: Arenaria serpyllifolia; test: Herbicidal activity against Arenaria serpyllifolia in cucumber plants fields exposed to 90 L/ha compound fumigation treatment assessed as hand weeding time per plot relative to untreated control
[15] = tested on: Digitaria sanguinalis; test: Herbicidal activity against Digitaria sanguinalis (hairy crabgrass) in cucumber plants fields exposed to 180 L/ha compound fumigation treatment assessed as hand weeding time per plot relative to untreated control
[16] = tested on: Solanum lycopersicum; test: Increase in crop yield in Cucumis sativus (cucumber) plants exposed to 180 L/ha compound fumigation treatment assessed as large fruit yield (reference value: 19.5 ton/ha)
[17] = tested on: Solanum lycopersicum; test: Increase in crop yield in Solanum lycopersicum (tomato) plants exposed to 90 L/ha compound fumigation treatment assessed as extra-large fruit yield (reference value: 3.8 ton/ha)
[18] = tested on: Arenaria serpyllifolia; test: Herbicidal activity against Arenaria serpyllifolia in tomato plants fields exposed to 90 L/ha compound fumigation treatment assessed as hand weeding time per plot (reference value: 243.3 hr/ha)
[19] = tested on: Solanum lycopersicum; test: Increase in plant height of Solanum lycopersicum (tomato) exposed to 120 L/ha compound fumigation treatment measured 30 days after compound treatment (reference value: 28.4 cm)
[20] = tested on: Solanum lycopersicum; test: Increase in crop yield in Solanum lycopersicum (tomato) plants exposed to 180 L/ha compound fumigation treatment assessed as medium fruit yield (reference value: 32.3 ton/ha)
[21] = tested on: Capsella bursa-pastoris; test: Herbicidal activity against Capsella bursa-pastoris in cucumber plants fields exposed to 120 L/ha compound fumigation treatment assessed as hand weeding time per plot (reference value: 258.3 hr/ha)
[22] = tested on: Cucumis sativus; test: Increase in plant height of Cucumis sativus (cucumber) exposed to 90 L/ha compound fumigation treatment measured 30 days after compound treatment (reference value: 85.6 cm)
[23] = tested on: Cucumis sativus; test: Increase in plant height of Cucumis sativus (cucumber) exposed to 90 L/ha compound fumigation treatment measured 50 days after compound treatment (reference value: 103.2 cm)
[24] = tested on: Solanum lycopersicum; test: Increase in crop yield in Solanum lycopersicum (tomato) plants exposed to 180 L/ha compound fumigation treatment assessed as large fruit yield (reference value: 15.2 ton/ha)
[25] = tested on: Meloidogyne incognita; test: Nematicidal activity against Meloidogyne incognita (root-knot nematode) in cucumber growing fields exposed to 120 L/ha compound fumigation treatment assessed as root galling index measured 20 days after compound treatment (reference value: 8.72 root galling index)
[26] = tested on: Meloidogyne incognita; test: Nematicidal activity against Meloidogyne incognita (root-knot nematode) in tomato growing fields exposed to 180 L/ha compound fumigation treatment assessed as root galling index measured 20 days after compound treatment (reference value: 8.51 root galling index)
[27] = tested on: Arenaria serpyllifolia; test: Herbicidal activity against Arenaria serpyllifolia in cucumber plants fields exposed to 180 L/ha compound fumigation treatment assessed as hand weeding time per plot relative to untreated control
[28] = tested on: Solanum lycopersicum; test: Increase in crop yield in Solanum lycopersicum (tomato) plants exposed to 120 L/ha compound fumigation treatment assessed as marketable yield fruit yield (reference value: 51.3 ton/ha)
[29] = tested on: Solanum lycopersicum; test: Increase in crop yield in Cucumis sativus (cucumber) plants exposed to 180 L/ha compound fumigation treatment assessed as medium fruit yield (reference value: 38.6 ton/ha)
[30] = tested on: Arenaria serpyllifolia; test: Herbicidal activity against Arenaria serpyllifolia in tomato plants fields exposed to 90 L/ha compound fumigation treatment assessed as hand weeding time per plot relative to untreated control
[31] = tested on: Capsella bursa-pastoris; test: Herbicidal activity against Capsella bursa-pastoris in cucumber plants fields exposed to 180 L/ha compound fumigation treatment assessed as hand weeding time per plot (reference value: 258.3 hr/ha)
[32] = tested on: Digitaria sanguinalis; test: Herbicidal activity against Digitaria sanguinalis (hairy crabgrass) in cucumber plants fields exposed to 120 L/ha compound fumigation treatment assessed as hand weeding time per plot (reference value: 258.3 hr/ha)
[33] = tested on: Meloidogyne incognita; test: Nematicidal activity against Meloidogyne incognita (root-knot nematode) in tomato growing fields exposed to 120 L/ha compound fumigation treatment assessed as root galling index measured 20 days after compound treatment (reference value: 8.51 root galling index)
[34] = tested on: Cucumis sativus; test: Increase in plant height of Cucumis sativus (cucumber) exposed to 120 L/ha compound fumigation treatment measured 30 days after compound treatment (reference value: 85.6 cm)
[35] = tested on: Cucumis sativus; test: Increase in plant height of Cucumis sativus (cucumber) exposed to 180 L/ha compound fumigation treatment measured 50 days after compound treatment (reference value: 103.2 cm)
[36] = tested on: Solanum lycopersicum; test: Increase in crop yield in Cucumis sativus (cucumber) plants exposed to 120 L/ha compound fumigation treatment assessed as marketable yield fruit yield (reference value: 65.3 ton/ha)
[37] = tested on: Solanum lycopersicum; test: Increase in crop yield in Solanum lycopersicum (tomato) plants exposed to 120 L/ha compound fumigation treatment assessed as large fruit yield (reference value: 15.2 ton/ha)

**Q.** Which results are given for `Cl/C=C/CCl` [1,3-DICHLOROPROPENE]?
**A.** Crop_yield [1]: 84 tons/ha; Activity [2]: 45%; Crop_yield [3]: 11.5 tons/ha; Activity [4]: 45%; Time [5]: 55.6 hr/ha; Time [6]: 55.6 hr/ha; Crop_yield [7]: 42.5 tons/ha; Crop_yield [8]: 38.7 tons/ha; Crop_yield [9]: 76.3 tons/ha; Time [10]: 90.5 hr/ha; Crop_yield [11]: 98.8 tons/ha; Time [12]: 90.5 hr/ha; Crop_yield [13]: 62.4 tons/ha; Activity [14]: 45%; Activity [15]: 45%; Crop_yield [16]: 31.7 tons/ha; Crop_yield [17]: 4.8 tons/ha; Time [18]: 85.6 hr/ha; Activity [19]: 37.9 cm; Crop_yield [20]: 45.3 tons/ha; Time [21]: 74.4 hr/ha; Activity [22]: 92.6 cm; Activity [23]: 112.3 cm; Crop_yield [24]: 22.6 tons/ha; Root_galling_index [25]: 2.92; Root_galling_index [26]: 2.34; Activity [27]: 45%; Crop_yield [28]: 68.1 tons/ha; Crop_yield [29]: 52.3 tons/ha; Activity [30]: 45%; Time [31]: 62.3 hr/ha; Time [32]: 74.4 hr/ha; Root_galling_index [33]: 2.84; Activity [34]: 96.8 cm; Activity [35]: 130.7 cm; Crop_yield [36]: 89.1 tons/ha; Crop_yield [37]: 19.2 tons/ha
